Reference: publication doi:10.1101/2023.05.15.540828, “Optimization of 3-Cyano-7-cyclopropylamino-pyrazolo[1,5-a]pyrimidines Toward the Development of an In Vivo Chemical Probe for CSNK2A” (bioRxiv, 2023)

What was measured:
CSNK2A1 = target: T1, CSNK2A1 (Homo sapiens, UniProt P68400); experiment: NanoBRET in-cell target engagement, Tracer K10 displacement, HEK293; assay type: cell-based
T1 construct: CSNK2A-NLuc fusion

CSNK2A2 = target: T2, CSNK2A2 (Homo sapiens, UniProt P19784); experiment: as above; assay type: cell-based
T2 construct: CSNK2A-NLuc fusion
T2 sequence (P19784 whole entry, the tested form may be a part): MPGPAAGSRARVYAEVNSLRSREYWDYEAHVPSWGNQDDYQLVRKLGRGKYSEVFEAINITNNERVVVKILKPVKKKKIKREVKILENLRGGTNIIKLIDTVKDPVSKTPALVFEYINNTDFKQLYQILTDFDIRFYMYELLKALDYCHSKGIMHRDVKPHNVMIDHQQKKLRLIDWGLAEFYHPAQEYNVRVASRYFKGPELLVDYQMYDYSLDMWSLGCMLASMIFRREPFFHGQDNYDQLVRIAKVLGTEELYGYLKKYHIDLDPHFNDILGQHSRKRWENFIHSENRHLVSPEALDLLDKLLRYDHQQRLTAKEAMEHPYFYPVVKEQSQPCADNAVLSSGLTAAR

T1 sequence (P68400 whole entry, the tested form may be a part): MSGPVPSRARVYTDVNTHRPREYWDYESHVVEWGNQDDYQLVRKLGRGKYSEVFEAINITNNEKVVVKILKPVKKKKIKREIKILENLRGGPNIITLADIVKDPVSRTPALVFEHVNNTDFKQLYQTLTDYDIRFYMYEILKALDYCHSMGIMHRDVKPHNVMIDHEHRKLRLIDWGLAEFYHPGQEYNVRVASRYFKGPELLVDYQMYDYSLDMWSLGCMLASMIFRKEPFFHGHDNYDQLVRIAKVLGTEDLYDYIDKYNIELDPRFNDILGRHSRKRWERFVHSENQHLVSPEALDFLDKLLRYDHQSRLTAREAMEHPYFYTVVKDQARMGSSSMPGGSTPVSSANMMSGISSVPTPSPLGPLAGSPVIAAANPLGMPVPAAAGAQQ

| Structure (SMILES) | [drawing 10] / CSNK2A1 pIC50^a (CSNK2A1) [pIC50] | [drawing 10] / CSNK2A2 pIC50^a (CSNK2A2) [pIC50] |
| --- | --- | --- |
| CN[C@H]1CCCN(c2ccc(Nc3cc(NC4CC4)n4ncc(C#N)c4n3)cc2NC(C)=O)C1 [2c, (S)-N-(5-((3-cyano-7-(cyclopropylamino)pyrazolo[1,5-a]pyrimidin-5-yl)amino)-2-(3-(methylamino)piperidin-1-yl)phenyl)acetamide] | 8.3 | 8.4 |
| CN[C@@H]1CCN(c2ccc(Nc3cc(NC4CC4)n4ncc(C#N)c4n3)cc2NC(C)=O)C1 [2d, (R)-N-(5-((3-cyano-7-(cyclopropylamino)pyrazolo[1,5-a]pyrimidin-5-yl)amino)-2-(3-(methylamino)pyrrolidin-1-yl)phenyl)acetamide] | 8.6 | 8.8 |
| CN[C@H]1CCN(c2ccc(Nc3cc(NC4CC4)n4ncc(C#N)c4n3)cc2NC(C)=O)C1 [2e, (S)-N-(5-((3-cyano-7-(cyclopropylamino)pyrazolo[1,5-a]pyrimidin-5-yl)amino)-2-(3-(methylamino)pyrrolidin-1-yl)phenyl)acetamide] | 8.3 | 8.4 |
| CC(=O)Nc1cc(Nc2cc(NC3CC3)n3ncc(C#N)c3n2)ccc1N(C)C[C@@H]1CCCN1 [2f, (S)-N-(5-((3-cyano-7-(cyclopropylamino)pyrazolo[1,5-a]pyrimidin-5-yl)amino)-2-(methyl(pyrrolidin-2-ylmethyl)amino)phenyl)acetamide] | 8.4 | 8.5 |
| CC(=O)Nc1cc(Nc2cc(NC3CC3)n3ncc(C#N)c3n2)ccc1N[C@@H]1CCCOC1 [2m, (R)-N-(5-((3-cyano-7-(cyclopropylamino)pyrazolo[1,5-a]pyrimidin-5-yl)amino)-2-((tetrahydro-2H-pyran-3-yl)amino)phenyl)acetamide] | 8.0 | 8.1 |
